Experimental data published in patent US20230088528A1, “USE OF LIPID IN PREPARATION OF NUCLEIC ACID DELIVERY REAGENT AND RELATED PRODUCT THEREOF” (INSTITUTE OF BASIC MEDICAL SCIENCES CHINESE ACADEMY OF …, priority 2019, published 2023).
Counter-ions that a name gives are not always drawn.

Test: In vivo delivery of lipid-nucleic acid mixture (PGY-sRNA-26) by gavage, relative intake in blood and tissues by RT-qPCR
Design: species or system C57BL/6 male mice
Conditions: for oral delivery of sRNA single-chain nucleic acid into the blood, and lung, kidney, spleen, and heart tissues of mice / oral delivery of sRNA single-chain nucleic acid into the blood, and lung, kidney, spleen, heart, and intestinal tissue of mice: 100 μg lipid:1 nmol PGY-sRNA-26 per mouse, 12 hrs after gavage, vs free intake group; for number of organs into which nucleic acid is significantly delivered: among the 6 organs in the experiments
Experimental: The concentration of a lipid solution in chloroform was 10 mg/ml (stock solution), and grouping was performed according to the lipid compound number.
1 nmol of small RNA (as shown in Table 2) was dissolved in 400 μl of DEPC-treated water in a glass tube, and 10 μl of a corresponding lipid stock solution was added, to give a system containing 100 μg of lipid. The system was well mixed, heated for 15 min in a water bath at 90° C., and then naturally cooled, to obtain a lipid-nucleic acid mixture of the lipid and small RNA.
The C57BL/6 male mice used in the experiment were purchased from Beijing Vital River Laboratory Animal Technology Co., Ltd., about 6 weeks old, and weighed 20-24 g. They were kept in an SPF animal room of the Animal Center of the Institute of Basic Medical Sciences, Chinese Academy of Medical Sciences. The mice were fasted for 12 hrs before gavage.
The lipid-nucleic acid mixture was prepared following the method as described in Example 2. The prepared lipid-nucleic acid mixture was orally administered at a dose of 100 μg lipid:1 nmol single-stranded small RNA PGY-sRNA-26 per mouse.
1) Blank group: Mice (n=4) were given 500 μl of normal saline by gavage, and this group served as a blank control group;
2) Free intake group: Mice (n=4) were given sRNA solution (1 nmol/animal, 500 μl) by direct gavage, and this group served as a negative control group;
3) Lipid treatment group: Mice (n=4) were given 500 μl of the lipid-nucleic acid mixture prepared in step 2 by gavage.
12 hrs after gavage in each group of mice, 500 μl of blood was taken from the eyeball, and 1.5 ml of Trizol Reagent LS (purchased from Invitrogen) was added and mixed well for lysis. The tissue sample was added with 3 ml of Trizol Reagent LS. and homogenized for full lysis, wherein the tissue sample included lung/kidney/spleen/heart/gut. 1 ml of blood or tissue lysate was taken and RNA was extracted according to the following steps.
The blood or tissue lysate was centrifuged at 4° C., and 12,000 rpm for 5 min, the pellet was discarded, and Trizol was transferred to a new centrifuge tube.
Chloroform was added in an amount of 200 μL chloroform/mL Trizol, shaken fully until uniform, and allowed to stand at room temperature for 5 min.
The sample was centrifuged at 4° C., and 12,000 rpm, for 15 min.
The upper aqueous phase was pipetted to another centrifuge tube, and isopropanol was added in an amount of 0.4 mL isopropanol/mL Trizol, mixed well, and allowed to stand at a low temperature for 10-20 min.
The sample was centrifuged at 4° C., and 12,000 rpm, for 15 min, the supernatant was discarded, and the RNA pellet was at the bottom of the tube.
1 mL of 75% ethanol was added, and the centrifuge tube was shaken gently, to suspend the pellet.
The sample was centrifuged at 4° C., and 12,000 rpm, for 10 min, the supernatant was discarded, 1 mL of 75% ethanol was added, and the centrifuge tube was shaken gently, to suspend the pellet.
The sample was centrifuged at 4° C., and 12,000 rpm, for 10 min, the supernatant was discarded, and the sample was air dried at room temperature. The RNA sample was dissolved in 50-100 μL of RNase-free H2O, and the RNA concentration was quantified by determining the OD value.
The sRNA was reversely transcribed into cDNA using a reverse transcription kit (High-Capacity cDNA Reverse Transcription Kits, Applied Biosystems, cat. no. 4368813), following the stem-loop method (see, for example Real-time quantification of microRNAs by stem-loop RT-PCR, Nucleic Acids Res. 2005 Nov. 27; 33(20):e179, incorporated herein by reference). System for reverse transcription: template RNA (200 ng/μL) 10 μL, 10×RT buffer 2.0 μL, 25×dNTP Mix (100 mM) 0.8 μL, U6 RT stem-loop primer 2.0 μL, PGY-sRNA-26 RT stem-loop primer 2.0 μL, MultiScribe™ reverse transcriptase 1.0 μL, RNAase inhibitor 1.0 μL, and nuclease-free water H2O 1.2 μL. […]

[1] = significant difference compared to the control, 100 μg lipid:1 nmol PGY-sRNA-26, 12 hrs

| Molecule | oral delivery of sRNA single-chain nucleic acid into the blood, and lung, kidney, spleen, and heart tissues of mice | oral delivery of sRNA single-stranded nucleic acid into the spleen tissue of mice [1] | oral delivery of sRNA single-chain nucleic acid into the blood, and lung, kidney, spleen, heart, and intestinal tissue of mice | further results |
| --- | --- | --- | --- | --- |
| 1,2-myristin-3-palmitin [Lipid 80] | can effectively orally deliver | can significantly efficiently orally deliver | – | number of organs into which nucleic acid is significantly delivered: two organs; oral delivery of sRNA single-stranded nucleic acid into the heart tissue of mice [1]: can significantly efficiently orally deliver |
| 1,2-stearin-3-olein [Lipid 77] | can effectively orally deliver | can significantly efficiently orally deliver | – | – |
| 1,3-palmitin-2-myristin [Lipid 76] | can effectively orally deliver | can significantly efficiently orally deliver | – | number of organs into which nucleic acid is significantly delivered: two organs; oral delivery of sRNA single-stranded nucleic acid into the lung tissue of mice [1]: can significantly efficiently orally deliver |
| 1-palmitoyl-2-oleoyl-sn-glycero-3-phospho-(1′-rac-glycerol) (sodium salt) [Lipid 88] | – | – | can effectively orally deliver | oral delivery of sRNA single-stranded nucleic acid into the kidney tissue of mice [1]: can significantly efficiently orally deliver |
| CCCCCCCC/C=C\CCCCCCCC(=O)OC[C@H](COP(=O)(O)OCCN)OC(=O)CCCCCCC/C=C\CCCCCCCC [Lipid 72, 1,2-dioleoyl-sn-glycero-3-phosphatidylethanolamine] | can effectively orally deliver | – | – | oral delivery of sRNA single-stranded nucleic acid into the lung tissue of mice [1]: can significantly efficiently orally deliver |
| CCCCCCCCC=CCCCCCCCC(=O)OCC(COC(=O)CCCCCCCCCCCCCCCCCCC)OC(=O)CCCCCCCC=CCCCCCCCC (stereo not drawn) [Lipid 78, 1,2-olein-3-arachidin] | can effectively orally deliver | – | – | – |
| CCCCCCCCC=CCCCCCCCC(=O)OCC(COC(=O)CCCCCCCCCCCCCCCCCCCCC)OC(=O)CCCCCCCC=CCCCCCCCC (stereo not drawn) [Lipid 79, 1,2-olein-3-behenin] | can effectively orally deliver | can significantly efficiently orally deliver | – | – |
| CCCCCCCC/C=C\CCCCCCCC(=O)OC[C@H](COP(=O)([O-])OCC(O)CO)OC(=O)CCCCCCC/C=C\CCCCCCCC.[Na+] (stereo partly drawn) [Lipid 81, 1,2-dioleoyl-sn-glycero-3-phosphatidylglycerol sodium salt] | can effectively orally deliver | can significantly efficiently orally deliver | – | – |
| COC1=C(OC)C(=O)C(C/C=C(\C)CC/C=C(\C)CC/C=C(\C)CC/C=C(\C)CC/C=C(\C)CC/C=C(\C)CC/C=C(\C)CC/C=C(\C)CC/C=C(\C)CCC=C(C)C)=C(C)C1=O [Lipid 82, Q-10, Ubiquinone 50, Ubiquinone 10] | – | – | can effectively orally deliver | – |
| CCCCCCCCCCCCCCCCOC[C@H](COP(=O)([O-])OCC[N+](C)(C)C)OC(C)=O [Lipid 84, β-acetyl-γ-O-hexadecyl-L-α-phosphatidylcholine hydrate] | – | – | can effectively orally deliver | – |
| CCCCCCCCCCCCCCCCOC[C@H](COP(=O)([O-])OCC[N+](C)(C)C)OC(C)=O [Lipid 85, β-acetyl-γ-O-alkyl-L-α-phosphatidylcholine] | – | – | can effectively orally deliver | – |
| CCCCCCCC/C=C\CCCCCCCC(=O)O[C@H](COC(=O)CCCCCCCCCCCCCCC)COP(=O)([O-])OCC[N+](C)(C)C [Lipid 86, 1-palmitoyl-2-oleoyl-sn-glycero-3-phosphocholine] | – | – | can effectively orally deliver | – |
| CCCCCCCC/C=C\CCCCCCCC(=O)O[C@H](COC(=O)CCCCCCCCCCCCCCCCC)COP(=O)([O-])OCC[N+](C)(C)C [Lipid 87, 1-stearoyl-2-oleoyl-sn-glycero-3-phosphocholine] | – | – | can effectively orally deliver | – |
| CCCCCCCC/C=C\CCCCCCCCCCCCCC(=O)N[C@@H](CO)[C@H](O)/C=C/CCCCCCCCCCCCC [Lipid 91, N-nervonoyl-D-erythro-sphingosine] | – | – | can effectively orally deliver | oral delivery of sRNA single-stranded nucleic acid into the kidney tissue of mice [1]: can significantly efficiently orally deliver |
| CCCCCCCCCCCCCCCCC/C=C/[C@@H](O)[C@@H](N)CO [Lipid 97, D-erythro-sphingosine (C22 group)] | – | – | can effectively orally deliver | number of organs into which nucleic acid is significantly delivered: two organs; oral delivery of sRNA single-stranded nucleic acid into the kidney tissue of mice [1]: can significantly efficiently orally deliver; oral delivery of sRNA single-stranded nucleic acid into the lung tissue of mice [1]: can significantly efficiently orally deliver |
| CCCCCCCCCCCCC/C=C/[C@@H](O)[C@@H](N)CO [Lipid 98, D-erythro-sphingosine] | – | can significantly efficiently orally deliver | can effectively orally deliver | overall nucleic acid delivery performance among the lipids (across the 6 organs in the experiments): most significant delivery performance; oral delivery of sRNA single-stranded nucleic acid into the kidney tissue of mice [1]: can significantly efficiently orally deliver; oral delivery of sRNA single-stranded nucleic acid into the lung tissue of mice [1]: can significantly efficiently orally deliver |
| CCCCCCCCC/C=C/[C@@H](O)[C@@H](N)CO [Lipid 99, D-erythro-sphingosine (C14 group)] | – | can significantly efficiently orally deliver | can effectively orally deliver | – |
| CCCCCCCCCCC/C=C/[C@@H](O)[C@@H](N)CO [Lipid 100, D-erythro-sphingosine (C16 group)] | – | can significantly efficiently orally deliver | can effectively orally deliver | – |
| CCCCC/C=C\C/C=C\CCCCCCCC(=O)OC[C@H](COP(=O)([O-])OCC[N+](C)(C)C)OC(=O)CCCCCCC/C=C\C/C=C\CCCCC [Lipid 107, 1,2-dilinoleoyl-sn-glycero-3-phosphocholine] | – | – | can effectively orally deliver | – |
| CCCCCCCCCCCCCCCC(=O)OC[C@H](COP(=O)(O)O[C@H]1C(O)C(O)C(O)[C@@H](O)C1O)OC(=O)CCCCCCCCCCCCCCC (stereo partly drawn) [Lipid 109, 1,2-dipalmitoyl-sn-glycero-3-phospho-(l′-myo-inositol) (ammonium salt)] | – | – | can effectively orally deliver | – |
| CCCCCCCCCCCCCCCCCC(=O)OCC(O)COC(=O)CCCCCCCCCCCCCCC (stereo not drawn) [Lipid 111, 1-palmitin-3-stearin] | – | – | can effectively orally deliver | – |
